Data as given in ChEMBL document CHEMBL5029196, “Novel Isoindolone Compounds as HPK1 Inhibitors for Treating Cancer” (ACS Med Chem Lett, 2022).

target: Mitogen-activated protein kinase kinase kinase kinase 1 (Homo sapiens, UniProt Q92918); assay: Inhibition of human full length recombinant HPK1 using 5FAM-AKRRRLSSLRACOOH as substrate preincubated for 20 mins and measured for 60 mins by microfluidic mobility shift assay
Sequence (Q92918 whole entry): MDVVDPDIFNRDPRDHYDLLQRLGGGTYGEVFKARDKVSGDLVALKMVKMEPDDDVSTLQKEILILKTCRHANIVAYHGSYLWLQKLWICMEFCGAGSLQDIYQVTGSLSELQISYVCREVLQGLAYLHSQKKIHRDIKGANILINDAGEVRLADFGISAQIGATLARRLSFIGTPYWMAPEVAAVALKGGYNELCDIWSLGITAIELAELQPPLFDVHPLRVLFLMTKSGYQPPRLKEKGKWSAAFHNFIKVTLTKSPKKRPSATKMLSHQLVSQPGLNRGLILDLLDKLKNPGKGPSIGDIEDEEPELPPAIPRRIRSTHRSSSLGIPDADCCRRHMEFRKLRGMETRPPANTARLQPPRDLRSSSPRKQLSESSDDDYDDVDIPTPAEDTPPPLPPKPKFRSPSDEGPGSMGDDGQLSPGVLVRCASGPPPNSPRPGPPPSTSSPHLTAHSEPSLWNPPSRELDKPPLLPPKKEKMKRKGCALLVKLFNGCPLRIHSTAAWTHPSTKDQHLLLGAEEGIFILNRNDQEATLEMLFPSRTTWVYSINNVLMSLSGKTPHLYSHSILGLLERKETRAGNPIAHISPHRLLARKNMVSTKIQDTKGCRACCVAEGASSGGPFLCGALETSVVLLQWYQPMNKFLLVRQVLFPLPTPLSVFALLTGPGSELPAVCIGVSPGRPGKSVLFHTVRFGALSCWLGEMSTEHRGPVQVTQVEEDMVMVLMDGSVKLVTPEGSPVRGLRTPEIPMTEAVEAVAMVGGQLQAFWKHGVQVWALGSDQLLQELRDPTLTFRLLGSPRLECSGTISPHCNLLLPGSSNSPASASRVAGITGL

SMILES | Ki [nM]
COc1cc2c(c(S(N)(=O)=O)c1)CN(c1cccc(-c3nncn3C(C)C)n1)C2=O | 0.4
COc1cc(CN)c2c(c1)C(=O)N(c1cccc(-c3nncn3[C@@H](C)CC(F)(F)F)n1)C2 | 0.3

Other lines, results leading:

Ki [nM] | SMILES
0.2 | CNCc1cc(OC)cc2c1CN(c1cccc(-c3nncn3[C@@H](C)C3CC3)n1)C2=O
0.3 | CC[C@H](C)n1cnnc1-c1cccc(N2Cc3c(CNC)cc(N4CCCC4)cc3C2=O)n1
0.4 | CC[C@@H](CC(F)(F)F)n1cnnc1-c1cccc(N2Cc3c(CNC)cc(OC)cc3C2=O)n1
0.4 | CC[C@H](C)n1cnnc1-c1cccc(N2Cc3c(CNC)cc(N(C)C)cc3C2=O)n1
